Results published in patent US20090217402A1, “METHODS AND COMPOSITIONS FOR MODULATING THE ACTIVITY OF PEPTIDASES IN MACROPHAGE AND MACROPHAGE-LIKE CELLS” (Emory University, priority 2005, published 2009).
Entries after “also recorded” stand apart in the source; their conditions may differ.

System: B16-F10 melanoma cells
Assay: B16-F10 melanoma tumor growth in wild type and ACE 10/10 mice with co-administered drug
Assay type: in vivo, mouse
Settings: intradermal B16-F10 melanoma
Method: Quantitation of B16-F10 tumor growth in wild type and ACE 10/10 mice was also conducted between groups in which the ACE inhibitor captopril was also administered. […] This experiment establishes that it is the presence of ACE in the ACE 10/10 mice that is important in the observed effects on tumor growth compared to wild-type mice.
B16-F10 tumor protocol. B16-F10 melanoma cell line was obtained from ATCC (American Type Culture Collection, Manassas, Va., USA). Cells were cultured in DMEM supplemented with 4 mM L-glutamine, 4.5 g/l glucose, 10% FBS, and antibiotics under humidified air with 5% CO2 at 37° C. […] The supernatant was removed, cell pellets were resuspended in PBS, and the cell number was counted.
Mice aged 8 to 12 weeks received exponentially growing cells (1×10^6) interdermally into the dorsal skin using a disposable 27-gauge needle under anesthesia (28 mg/kg avertin, intraperitoneally). Measurements of tumor size (longest and shortest diameters) were done using calipers at the 11th and 14th day, and body weight was measured at the day of inoculation (Day 0) and at harvesting (the 14th day), respectively. Tumor volume was calculated by the formula for a prolate spheroid according to the equation (L [longest diameter] H S2 [shortest diameter] H 0.52)=tumor volume.

SMILES	B16-F10 tumor growth (resistance of ACE 10/10 mice to melanoma)
C[C@H](CS)C(=O)N1CCC[C@H]1C(=O)O [captopril]	comparable to wild-type mice in terms of susceptibility to tumor growth
CCCCc1nc(Cl)c(CO)n1Cc1ccc(-c2ccccc2-c2nn[nH]n2)cc1 [losartan]	does not inhibit the ability of the ACE 10/10 mice to resist melanoma; also recorded: did not inhibit the ability of the ACE 10/10 mice to resist melanoma growth
